# Entries after “also recorded” stand apart in the source; their conditions may differ. Where a name gives a salt, the structure may show the parent alone.
# Key:
# [1] = system: Orlando insecticide-susceptible strain of Ae. aegypti (female mosquitoes); assay: Glass tube spatial repellency assay; format: in vivo, Aedes aegypti; details: for 15 min repellency ratio / 30 min repellency ratio / 1 hr repellency ratio: horizontal tube, 0.5=0% repellency, 0=100% repellency; for effect of TFA on repellency, applied side-by-side: TFA 50 μg/cm^2 side-by-side, DEET 18 μg/cm^2; for repellency EC50 (+TFA): applied as mixture with TFA (50 μg/cm^2); for repellency EC50 (+TFA) / repellency EC50 / effect of TFA on repellency, applied as mixture: 1 hr; for repellency at highest concentration tested (words) / repellency EC50 / spatial repellency in screening: compound alone; for repellency at highest concentration tested (words): 1-2 mg/cm^2; for synergist ratio SR (EC50 compound alone/EC50 compound+TFA): TFA 50 μg/cm^2 as mixture; for synergism of repellency with citronella: citronella at its EC20 (20 μg/cm^2); for spatial repellency in screening: 100 μg/cm^2, 1 hr exposure; for EC50 (95% CL), repellency of TFA esters: 1 hr exposures, Ae. aegypti females; for effect of TFA on repellency, applied as mixture: TFA 50 μg/cm^2 + EC20 of test compound (permethrin 30 μg/cm^2)
# Protocol: (§1) The following assay was conducted according to the procedures of Jiang et al., 2019 (Jiang S., Yang L, and Bloomquist J (2019) High-throughput screening method for evaluating spatial repellency and vapor toxicity to mosquitoes. Med. Vet. Entomol.). For assessing behavioral repellency (FIG. 1), sixteen female Aedes aegypti mosquitoes were transferred to a glass tube (12.5 cm long, 2.5 cm outer diameter) with the ends covered with netting. Metofluthrin, bifenthrin, permethrin, pyrethrum, transfluthrin, deltamethrin, esfenvalerate, metofluthrin acid, bifenthrin acid, phenothrin acid, transchryanthemic acid, transfluthrin acid, deltamethrin acid, and fenvalerate acid were each dissolved in 1 mL of acetone and serial dilutions ranging from 30-0.01 μg/ml were made. Circular filter papers (5 cm^2) were saturated with 50 μL of each concentration and allowed 10 min for solvent evaporation. The filter papers were then placed in clear conical polypropylene caps and fixed to the end of the glass tubes. The netting prevented mosquito contact with the filter paper. Tubes were then aligned with a mark denoting the midline and the proportion of mosquitoes on the chemically treated side was scored at 15, 30, and 60 min. At the end of the test, the tube was placed in a cage and the ability of the mosquitoes to fly out of the tube was assessed for 30 min. […] This post-test evaluated whether any non-responding mosquitoes (not repelled) was due to intoxication or disorientation from the test chemical. For vapor toxicity, the assay was identical, except that mosquitoes were kept in the tube for 24 hr without the post-test at 1 hr, and the mortality was recorded at 24 hr.
# female Ae. aegypti = assay: Human arm bite protection assay; format: in vivo, Aedes aegypti; details: for MED values Female 10: as E30, volunteer one; for MED values Female 9: as E30, volunteer two; for MED Mean: mean of three human volunteers; for MED values Male 4: minimum amount preventing 99% of bites, treated cloth patch, 1 min in cage, mixtures with TFA 0.047 or TCA 0.094 mg/cm^2
# Protocol: A human bite protection assay was performed according to see if the repellency observed in glass tubes extended to bite protection. The assay was run in accordance with that of Tsikolia et al. (Tsikolia M, Bernier UR, Coy M, Chalaire K, Becnel J, Agramonte N, Tabanca N, Wedge D, Clark G, Linthicum K, Swale D, and J. R. Bloomquist J (2013) Insecticidal and fungicidal properties of novel trifluoromethylphenyl amides. Pestic. Biochem. Physiol. 107, 138-147). Treated cloth patches were worn by human volunteers and the number of blood fed mosquitoes was determined after 1 min spent in a cage with 500 (±10%) female Ae. aegypti. Minimum Effective Dosage (MED in mg/cm^2) is the minimum amount required to prevent 99% of bites in three human volunteers (UF IRB #201602334). Synergist ratio (SR)=MED chemical alone/MED chemical+TFA (0.047 mg/cm^2) or TCA (0.094 mg/cm^2).
# [2] = system: insecticide-susceptible Aedes aegypti (Orlando strain) females; assay: Glass tube vapor toxicity assay (24 hr mortality); details: horizontal tube
# Protocol: as §1
# Synergism ratio (SR)=LC50 pyrethroid/LC50 pyrethroid+EO.
Compound,MED values Female 10 (female Ae. aegypti) [mg/cm^2],MED values Female 9 (female Ae. aegypti) [mg/cm^2],MED Mean (female Ae. aegypti) [mg/cm^2],MED values Male 4 (female Ae. aegypti) [mg/cm^2],repellency EC50 (+TFA) [1] [μg/cm^2],repellency EC50 [1] [μg/cm^2],synergist ratio SR (EC50 compound alone/EC50 compound+TFA) ([1]; repellency),further results
Cc1cccc(C(N)=O)c1 [m-toluamide],,,,,,,,15 min repellency ratio ([1]; 10 μg/cm^2): 0.50; 30 min repellency ratio ([1]; 10 μg/cm^2): 0.50; 1 hr repellency ratio ([1]; 10 μg/cm^2): 0.38; 15 min repellency ratio ([1]; 100 μg/cm^2): 0.19; 30 min repellency ratio ([1]; 100 μg/cm^2): 0.31; 1 hr repellency ratio ([1]; 100 μg/cm^2): 0.06
O=Cc1cccc(Oc2ccccc2)c1 [3-phenoxybenzaldehyde],0.750,>0.75,>0.75,>0.75,,,,
"CCc1ccc(NC(=O)CSc2nnc(-c3cccnc3)n2CC)cc1 [VUAA-1, 2-(4-Ethyl-5-(pyridin-3-yl)-4H-1,2,4-triazol-3-ylthio)-N-(4-ethylphenyl)acetamide, reference compound]",,,,,30,>2000,>67,"effect of TFA on repellency, applied side-by-side [1]: synergism disappeared; repellency EC50 +citronella ([1]; co-applied citronella at its EC20 (20 μg/cm^2)): 34 μg/cm^2; repellency at highest concentration tested (words) [1]: inactive; also recorded: repellency was not observed"
O=Cc1cccc(O)c1 [3-hydroxybenzaldehyde],,,,,,,,15 min repellency ratio ([1]; 10 μg/cm^2): 0.56; 30 min repellency ratio ([1]; 10 μg/cm^2): 0.53; 1 hr repellency ratio ([1]; 10 μg/cm^2): 0.56; 15 min repellency ratio ([1]; 100 μg/cm^2): 0.41; 30 min repellency ratio ([1]; 100 μg/cm^2): 0.41; 1 hr repellency ratio ([1]; 100 μg/cm^2): 0.56; 24 hr mort (%) ([2]; 10 μg/cm^2): 21.9%; 24 hr mort (%) ([2]; 100 μg/cm^2): 15.6%
"α, α, α-trifluoromethyltolualdehyde",,,,,,,,15 min repellency ratio ([1]; 10 μg/cm^2): 0.38; 30 min repellency ratio ([1]; 10 μg/cm^2): 0.44; 1 hr repellency ratio ([1]; 10 μg/cm^2): 0.31; 15 min repellency ratio ([1]; 100 μg/cm^2): 0.38; 30 min repellency ratio ([1]; 100 μg/cm^2): 0.50; 1 hr repellency ratio ([1]; 100 μg/cm^2): 0.63; 24 hr mort (%) ([2]; 10 μg/cm^2): 0.0%; 24 hr mort (%) ([2]; 100 μg/cm^2): 0.0%
"CC1(C)C(C=C(Cl)Cl)C1C(=O)O (stereo not shown) [TFA, transfluthrin acid]",0.094,0.187,0.156,0.187,,,,"repellency of TFA by itself ([1]; TFA alone, 50 μg/cm^2 and higher): no repellent activity by itself; also recorded: no effect; also recorded: inactive by itself; synergism of repellency with citronella [1]: strong positive response; also recorded: Synergistic interactions were discovered"
"Cc1c(COC(=O)C2C(/C=C(/Cl)C(F)(F)F)C2(C)C)cccc1-c1ccccc1 (stereo not shown) [bifenthrin, Bifenthrin, reference compound]",,,,,,,,spatial repellency in screening [1]: some repellency at high exposure
"CC1(C)[C@H](C=C(Cl)Cl)[C@H]1C(=O)OC1CCCC1 [GMR 124, Cyclopentyl (1R,3S)-3-(2,2-dichlorovinyl)-2,2-dimethylcyclopropane-1-carboxylate]",,,,,,,,"EC50 (95% CL), repellency of TFA esters [1]: 11 (8-15) μg/cm^2"
benzyloxybenzaldehyde,,,,,,,,15 min repellency ratio ([1]; 10 μg/cm^2): 0.69; 30 min repellency ratio ([1]; 10 μg/cm^2): 0.69; 1 hr repellency ratio ([1]; 10 μg/cm^2): 0.63; 15 min repellency ratio ([1]; 100 μg/cm^2): 0.69; 30 min repellency ratio ([1]; 100 μg/cm^2): 0.81; 1 hr repellency ratio ([1]; 100 μg/cm^2): 0.44
"CCCCN(CCC(=O)OCC)C(C)=O [IR3535, ethyl butylacetylaminopropionate]",0.047,0.047,0.063,0.094,,,,"effect of TFA on repellency, applied as mixture [1]: no statistically significant effect"
CCCCCCCCCC(C)=O [2-undecanone],0.375,0.187,0.219,0.094,5.1,59,11.6,
"CC1(C)[C@H](C=C(Cl)Cl)[C@H]1C(=O)OC1CCC1 [GMR 125, Cyclobutyl (1R,3S)-3-(2,2-dichlorovinyl)-2,2-dimethylcyclopropane-1-carboxylate]",,,,,,,,"EC50 (95% CL), repellency of TFA esters [1]: 17 (11-27) μg/cm^2"
"CCN(CC)C(=O)c1cccc(C)c1 [DEET, N,N-diethyl-m-toluamide, reference compound]",0.011,0.011,0.011,0.011,26,39,1.5,"effect of TFA on repellency, applied as mixture [1]: no statistically significant effect; effect of TFA on repellency, applied side-by-side [1]: synergistic effect was observed; repellency EC50 +TFA(S) ([1]; TFA (50 μg/cm^2) applied side-by-side on halves of the filter): 8.1 μg/cm^2; synergism of repellency with citronella [1]: did not synergize; fold decrease of EC50 by TFA side-by-side ([1]; repellency, TFA 50 μg/cm^2 side-by-side treatment): ~5 fold"
COCc1c(F)c(F)c(CO)c(F)c1F [metofluthrin alcohol],,,,,,,,synergism of repellency with GMR 134 ([1]; alcohol 100 μg/cm^2 mixed with GMR 134 at 2 μg/cm^2): significantly synergized
"CC1(C)C(C=C(Cl)Cl)C1C(=O)OCc1cccc(Oc2ccccc2)c1 (stereo not drawn) [permethrin, 3-phenoxybenzyl 3-(β,β-dichlorovinyl)-2,2-dimethylcyclopropanecarboxylate, reference compound]",0.187,0.187,0.187,0.187,9.5,>1000,>105,"spatial repellency in screening [1]: inactive as vapor phase repellents; effect of TFA on repellency, applied as mixture [1]: some spatial repellency; repellency at highest concentration tested (words) [1]: repellency was not observed; repellency at highest concentration tested (words) ([1]; listed as Permethrin): inactive"
"CCCCCOC(=O)[C@@H]1[C@@H](C=C(Cl)Cl)C1(C)C [GMR 120, nPentyl (1R,3S)-3-(2,2-dichlorovinyl)-2,2-dimethylcyclopropane-1-carboxylate]",,,,,,,,"EC50 (95% CL), repellency of TFA esters [1]: 10 (7-15) μg/cm^2"
"CC1(C)[C@H](C=C(Cl)Cl)[C@H]1C(=O)OC1CC1 [GMR 126, Cyclopropyl (1R,3S)-3-(2,2-dichlorovinyl)-2,2-dimethylcyclopropane-1-carboxylate]",,,,,0.35,8.5,24,"EC50 (95% CL), repellency of TFA esters [1]: 8.5 (5-13) μg/cm^2"
"CC1(C)[C@H](C(=O)O[C@H](C#N)c2cccc(Oc3ccccc3)c2)[C@@H]1C=C(Br)Br [deltamethrin, Deltamethrin, reference compound]",,,,,,,,spatial repellency in screening [1]: inactive as vapor phase repellents
"CC/C=C\C[C@H]1C(=O)CC[C@@H]1CC(=O)OC [methyl jasmonate, Methyl (1R,2R)-3-Oxo-2-(2Z)-2-pentenyl-cyclopentaneacetate]",0.75,0.75,>1,>1.5,6,39,6.5,
"O=Cc1ccccc1 [benzaldehyde, reference compound]",,,,,15,118,8,
"OCc1c(F)c(F)cc(F)c1F [TF-OH, transfluthrin alcohol]",,,,,41,80,about 2,spatial repellency in screening [1]: significant repellency

# Source: patent US20220304307A1, “SYNERGISTIC MIXTURES FOR ARTHROPOD TOXICITY AND REPELLENCY” (University of Florida Research Foundation, Incorporated, priority 2019, published 2022)
